Experimental data taken from ChEMBL document CHEMBL1135773, “Purine and pyrimidine (P2) receptors as drug targets” (J Med Chem, 2002).

Experiments:
P2Y purinoceptor 2 = P2Y purinoceptor 2 (Homo sapiens, UniProt P41231); assay: Evaluated for agonist activity against phospholipase C coupled recombinant human P2Y purinoceptor 2 (P2Y2); format: functional
P2Y purinoceptor 1 = P2Y purinoceptor 1 (Homo sapiens, UniProt P47900); assay: Evaluated for agonist activity against phospholipase C coupled P2Y purinoceptor 1 (P2Y1) of human erythrocytes; format: functional
P2Y purinoceptor 4 = P2Y purinoceptor 4 (Rattus norvegicus, UniProt O35811); assay: The compound was evaluated for antagonist activity against phospholipase C coupled recombinant rat P2Y purinoceptor 4 (P2Y4); format: functional
P2Y purinoceptor 11 = biological target: T1, P2Y purinoceptor 11 (Homo sapiens, UniProt Q96G91); assay: Agonist activity against phospholipase C coupled human P2Y purinoceptor 11 (P2Y11); format: functional
T1 sequence (Q96G91 whole entry): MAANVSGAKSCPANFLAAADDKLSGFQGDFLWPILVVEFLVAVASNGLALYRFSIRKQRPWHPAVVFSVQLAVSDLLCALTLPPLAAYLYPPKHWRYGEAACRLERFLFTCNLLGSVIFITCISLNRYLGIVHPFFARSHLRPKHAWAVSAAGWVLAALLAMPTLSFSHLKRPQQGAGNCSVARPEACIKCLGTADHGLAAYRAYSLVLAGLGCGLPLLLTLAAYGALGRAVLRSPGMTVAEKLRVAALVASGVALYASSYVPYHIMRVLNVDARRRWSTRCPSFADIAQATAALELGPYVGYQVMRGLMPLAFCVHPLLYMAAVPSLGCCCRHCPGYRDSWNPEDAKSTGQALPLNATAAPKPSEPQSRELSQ

P2Y purinoceptor 6 = P2Y purinoceptor 6 (Homo sapiens, UniProt Q15077); assay: The compound was evaluated for agonist activity against phospholipase C coupled recombinant human P2Y purinoceptor 6 (P2Y6); format: functional
P2X purinoceptor 3 = biological target: T2, P2X purinoceptor 3 (Homo sapiens, UniProt P56373); assay: Antagonist activity against recombinant human P2X purinoceptor 3 (P2X3 ); format: functional
T2 sequence (P56373 whole entry): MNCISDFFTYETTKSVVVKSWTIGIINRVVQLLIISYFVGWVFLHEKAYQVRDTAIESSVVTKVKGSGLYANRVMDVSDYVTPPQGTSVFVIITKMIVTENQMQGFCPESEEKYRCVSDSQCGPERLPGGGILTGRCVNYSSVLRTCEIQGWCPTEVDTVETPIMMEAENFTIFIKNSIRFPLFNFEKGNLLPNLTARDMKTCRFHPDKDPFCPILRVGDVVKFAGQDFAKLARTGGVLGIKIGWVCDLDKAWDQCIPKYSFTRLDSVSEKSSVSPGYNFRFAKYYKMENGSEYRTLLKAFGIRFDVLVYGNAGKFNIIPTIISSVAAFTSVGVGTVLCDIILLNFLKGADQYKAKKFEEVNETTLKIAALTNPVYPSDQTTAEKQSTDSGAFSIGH

P2X purinoceptor 2 = P2X purinoceptor 2 (Homo sapiens, UniProt Q9UBL9); assay: The compound was evaluated for antagonist activity against recombinant human receptor P2X purinoceptor 2 (P2X2 ); format: functional
P2X purinoceptor 1 = biological target: T3, P2X purinoceptor 1 (Homo sapiens, UniProt P51575); assay: Antagonist activity against recombinant human P2X purinoceptor 1 (P2X1 ); format: functional
T3 sequence (P51575 whole entry): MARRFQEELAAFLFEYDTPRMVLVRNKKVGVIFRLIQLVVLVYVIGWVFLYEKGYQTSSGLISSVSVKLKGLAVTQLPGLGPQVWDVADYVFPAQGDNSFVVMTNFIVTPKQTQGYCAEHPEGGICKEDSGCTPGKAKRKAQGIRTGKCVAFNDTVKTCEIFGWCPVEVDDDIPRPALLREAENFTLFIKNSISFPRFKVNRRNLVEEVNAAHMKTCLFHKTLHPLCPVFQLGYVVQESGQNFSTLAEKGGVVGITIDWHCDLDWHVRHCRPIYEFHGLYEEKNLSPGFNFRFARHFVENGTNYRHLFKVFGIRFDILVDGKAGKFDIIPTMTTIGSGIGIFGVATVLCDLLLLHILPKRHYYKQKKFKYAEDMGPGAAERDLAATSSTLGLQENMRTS

P2X purinoceptor 4 [1] = biological target: T4, P2X purinoceptor 4 (Homo sapiens, UniProt Q99571); assay: Antagonist activity against recombinant human P2X purinoceptor 4 (P2X4); format: functional
T4 sequence (Q99571 whole entry): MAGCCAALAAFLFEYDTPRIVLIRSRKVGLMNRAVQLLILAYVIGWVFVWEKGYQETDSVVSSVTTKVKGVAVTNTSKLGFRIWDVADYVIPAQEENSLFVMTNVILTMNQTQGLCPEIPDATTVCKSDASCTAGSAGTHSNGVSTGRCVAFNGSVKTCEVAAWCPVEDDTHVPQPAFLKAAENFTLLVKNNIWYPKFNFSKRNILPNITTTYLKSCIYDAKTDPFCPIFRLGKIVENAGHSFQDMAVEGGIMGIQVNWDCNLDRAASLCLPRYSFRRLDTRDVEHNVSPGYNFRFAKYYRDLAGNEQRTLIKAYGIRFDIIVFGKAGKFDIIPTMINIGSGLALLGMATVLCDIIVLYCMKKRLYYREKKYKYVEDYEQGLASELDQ

P2X purinoceptor 6 = P2X purinoceptor 6 (Rattus norvegicus, UniProt P51579); assay: Antagonist activity against recombinant rat P2X purinoceptor 6 (P2X6 ); format: functional
P2X purinoceptor 4 [2] = biological target: T5, P2X purinoceptor 4 (Rattus norvegicus, UniProt P51577); assay: Antagonist activity against recombinant rat P2X purinoceptor 4 (P2X4) at 30 uM, expressed in Xenopus oocytes; format: functional, cell-based, Oocyte
T5 sequence (P51577 whole entry): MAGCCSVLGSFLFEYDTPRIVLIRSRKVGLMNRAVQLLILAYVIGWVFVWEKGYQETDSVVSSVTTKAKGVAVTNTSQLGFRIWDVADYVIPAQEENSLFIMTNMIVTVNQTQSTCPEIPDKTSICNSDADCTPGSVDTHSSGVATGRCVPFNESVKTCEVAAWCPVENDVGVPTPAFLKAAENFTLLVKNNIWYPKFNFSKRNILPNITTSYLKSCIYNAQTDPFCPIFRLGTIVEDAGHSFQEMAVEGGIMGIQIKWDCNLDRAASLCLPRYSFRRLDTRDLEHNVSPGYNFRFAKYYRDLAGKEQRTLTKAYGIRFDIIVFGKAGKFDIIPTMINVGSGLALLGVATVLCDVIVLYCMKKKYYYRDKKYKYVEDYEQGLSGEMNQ

P2X purinoceptor 5 = biological target: T6, P2X purinoceptor 5 (Rattus norvegicus, UniProt P51578); assay: Antagonist activity against recombinant rat P2X purinoceptor 5 (P2X5); format: functional
T6 sequence (P51578 whole entry): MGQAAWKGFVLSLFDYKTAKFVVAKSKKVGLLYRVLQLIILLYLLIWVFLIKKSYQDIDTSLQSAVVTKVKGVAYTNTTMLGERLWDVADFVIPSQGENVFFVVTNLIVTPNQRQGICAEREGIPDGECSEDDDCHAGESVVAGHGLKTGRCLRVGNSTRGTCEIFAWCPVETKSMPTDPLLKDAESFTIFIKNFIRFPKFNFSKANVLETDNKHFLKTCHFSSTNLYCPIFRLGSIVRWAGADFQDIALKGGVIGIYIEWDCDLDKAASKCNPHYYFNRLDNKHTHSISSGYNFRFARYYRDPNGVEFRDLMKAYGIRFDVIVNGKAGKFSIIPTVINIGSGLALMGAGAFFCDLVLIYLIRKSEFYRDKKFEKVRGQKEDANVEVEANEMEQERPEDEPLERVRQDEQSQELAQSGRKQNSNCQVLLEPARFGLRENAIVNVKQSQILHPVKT

P2Y purinoceptor 12 = P2Y purinoceptor 12 (Rattus norvegicus, UniProt Q9EPX4); assay: Antagonist activity against phospholipase C coupled rat P2Y purinoceptor 12 (P2Y12); format: functional
Sequence of P2Y purinoceptor 12 (Q9EPX4 whole entry): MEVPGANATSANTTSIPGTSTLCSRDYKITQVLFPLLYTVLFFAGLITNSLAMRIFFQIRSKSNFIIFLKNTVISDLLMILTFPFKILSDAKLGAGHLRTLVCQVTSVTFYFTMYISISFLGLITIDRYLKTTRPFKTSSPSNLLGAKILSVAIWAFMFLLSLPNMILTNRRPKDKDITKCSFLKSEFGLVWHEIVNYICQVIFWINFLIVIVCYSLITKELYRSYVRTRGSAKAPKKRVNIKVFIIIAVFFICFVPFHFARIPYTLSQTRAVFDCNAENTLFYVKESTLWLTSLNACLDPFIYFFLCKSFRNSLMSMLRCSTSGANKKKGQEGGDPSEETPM

Sequence of P2Y purinoceptor 2 (P41231 whole entry): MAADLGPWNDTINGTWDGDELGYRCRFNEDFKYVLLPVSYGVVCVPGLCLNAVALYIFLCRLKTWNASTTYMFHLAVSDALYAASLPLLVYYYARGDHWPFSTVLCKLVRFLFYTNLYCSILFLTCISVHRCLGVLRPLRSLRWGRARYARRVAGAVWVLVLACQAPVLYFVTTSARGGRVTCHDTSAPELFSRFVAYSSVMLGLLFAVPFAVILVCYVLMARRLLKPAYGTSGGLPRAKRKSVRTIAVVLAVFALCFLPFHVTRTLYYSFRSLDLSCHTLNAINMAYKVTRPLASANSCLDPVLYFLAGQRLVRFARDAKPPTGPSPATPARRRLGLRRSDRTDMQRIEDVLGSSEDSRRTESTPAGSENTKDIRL
Sequence of P2X purinoceptor 2 (Q9UBL9 whole entry): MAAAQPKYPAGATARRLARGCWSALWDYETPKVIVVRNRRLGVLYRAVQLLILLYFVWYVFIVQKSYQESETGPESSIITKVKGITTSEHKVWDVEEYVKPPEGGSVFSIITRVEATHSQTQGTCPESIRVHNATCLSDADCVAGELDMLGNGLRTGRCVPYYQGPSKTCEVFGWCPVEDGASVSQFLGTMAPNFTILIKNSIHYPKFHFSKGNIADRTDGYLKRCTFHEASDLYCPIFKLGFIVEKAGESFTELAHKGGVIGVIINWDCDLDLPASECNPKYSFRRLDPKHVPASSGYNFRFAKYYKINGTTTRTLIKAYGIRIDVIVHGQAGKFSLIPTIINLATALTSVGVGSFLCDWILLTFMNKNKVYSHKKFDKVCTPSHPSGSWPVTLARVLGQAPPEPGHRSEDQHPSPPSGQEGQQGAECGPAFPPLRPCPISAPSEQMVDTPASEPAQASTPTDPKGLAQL
Sequence of P2Y purinoceptor 4 (O35811 whole entry): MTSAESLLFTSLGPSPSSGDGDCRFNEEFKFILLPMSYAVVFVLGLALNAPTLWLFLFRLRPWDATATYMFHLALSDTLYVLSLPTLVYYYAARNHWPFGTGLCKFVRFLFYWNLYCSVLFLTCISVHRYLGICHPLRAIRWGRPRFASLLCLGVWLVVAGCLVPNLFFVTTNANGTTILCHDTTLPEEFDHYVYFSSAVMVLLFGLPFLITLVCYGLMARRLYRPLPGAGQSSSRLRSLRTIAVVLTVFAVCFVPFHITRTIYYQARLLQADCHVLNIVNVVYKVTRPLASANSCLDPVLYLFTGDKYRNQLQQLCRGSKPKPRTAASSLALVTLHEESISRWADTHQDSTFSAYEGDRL
Sequence of P2X purinoceptor 6 (P51579 whole entry): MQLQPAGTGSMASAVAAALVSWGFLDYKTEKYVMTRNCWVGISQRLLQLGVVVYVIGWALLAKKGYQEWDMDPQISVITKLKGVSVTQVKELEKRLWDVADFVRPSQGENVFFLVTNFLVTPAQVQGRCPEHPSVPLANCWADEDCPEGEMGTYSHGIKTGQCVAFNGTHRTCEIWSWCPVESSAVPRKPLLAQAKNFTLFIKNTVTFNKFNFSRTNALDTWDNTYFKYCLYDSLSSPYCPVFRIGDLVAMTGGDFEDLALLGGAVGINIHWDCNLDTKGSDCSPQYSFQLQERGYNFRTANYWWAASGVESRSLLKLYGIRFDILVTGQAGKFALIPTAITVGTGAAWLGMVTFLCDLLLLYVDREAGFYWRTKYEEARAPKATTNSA
Sequence of P2Y purinoceptor 6 (Q15077 whole entry): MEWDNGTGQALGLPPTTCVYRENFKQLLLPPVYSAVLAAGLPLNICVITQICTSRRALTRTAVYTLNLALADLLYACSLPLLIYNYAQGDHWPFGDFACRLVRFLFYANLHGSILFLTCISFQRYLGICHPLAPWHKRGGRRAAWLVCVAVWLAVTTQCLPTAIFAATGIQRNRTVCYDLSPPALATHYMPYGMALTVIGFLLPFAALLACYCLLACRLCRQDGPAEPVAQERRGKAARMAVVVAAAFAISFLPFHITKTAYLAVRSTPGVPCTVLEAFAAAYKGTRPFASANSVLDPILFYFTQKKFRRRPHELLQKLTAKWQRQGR
Sequence of P2Y purinoceptor 1 (P47900 whole entry): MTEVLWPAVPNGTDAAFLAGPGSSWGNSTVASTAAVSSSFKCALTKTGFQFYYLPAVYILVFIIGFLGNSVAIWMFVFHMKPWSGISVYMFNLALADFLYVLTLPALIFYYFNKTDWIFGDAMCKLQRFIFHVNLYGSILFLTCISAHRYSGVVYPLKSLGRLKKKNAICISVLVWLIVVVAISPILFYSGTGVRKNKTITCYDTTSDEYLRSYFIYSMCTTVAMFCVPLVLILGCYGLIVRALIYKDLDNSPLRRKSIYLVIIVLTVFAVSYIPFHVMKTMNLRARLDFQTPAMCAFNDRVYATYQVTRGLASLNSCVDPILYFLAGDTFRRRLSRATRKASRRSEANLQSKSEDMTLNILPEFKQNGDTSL

| SMILES | EC50 (P2Y purinoceptor 2) [µM] | EC50 (P2Y purinoceptor 1) [µM] | EC50 (P2Y purinoceptor 4) [µM] | EC50 (P2Y purinoceptor 11) [µM] | EC50 (P2Y purinoceptor 6) [µM] | EC50 (P2X purinoceptor 3) [µM] | EC50 (P2X purinoceptor 2) [µM] | EC50 (P2X purinoceptor 1) [µM] | EC50 (P2X purinoceptor 4 [1]) [µM] | EC50 (P2X purinoceptor 6) [µM] | EC50 (P2X purinoceptor 4 [2]) [µM] | EC50 (P2X purinoceptor 5) [µM] | EC50 (P2Y purinoceptor 12) [µM] |
| --- | --- | --- | --- | --- | --- | --- | --- | --- | --- | --- | --- | --- | --- |
| O=c1ccn([C@@H]2O[C@H](COP(=O)(O)OP(=O)(O)OP(=O)(O)O)[C@@H](O)[C@H]2O)c(=O)[nH]1 [URIDINE TRIPHOSPHATE] | 0.14 | > 100 | 2.6 | > 100 | 6 | – | – | – | – | – | – | – | – |
| Nc1ncnc2c1ncn2[C@@H]1O[C@H](COP(=O)(O)OP(=O)(O)OP(=O)(O)OP(=O)(O)OC[C@H]2O[C@@H](n3cnc4c(N)ncnc43)[C@H](O)[C@@H]2O)[C@@H](O)[C@H]1O [DIADENOSINE TETRAPHOSPHATE] | 0.72 | – | 3 | – | – | 0.5 | 15 | 0.182 | 1 | – | – | – | – |
| Nc1ncnc2c1ncn2[C@@H]1O[C@H](COP(=O)(O)OP(=O)(O)O)[C@@H](O)[C@H]1O [ADENOSINE DIPHOSPHATE] | > 100 | – | – | – | – | > 100 | > 100 | 10 | – | 11 | 28 | 18 | 0.069 |
